Test results taken from US10709727B2, “Antiviral drugs” (priority 2015, dated 2020).

System: influenza virus (WSN strain)
Type: cell-based

## DOCK11 #2: lentivirus-expressed shRNA against DOCK11 gene, SEQ ID NO: 2, used in Examples 3, 4, 6, 8, 12 (guide CCGGGTACTAGACACCATATCATTTCTCGAGAAATGATATGGTGTCTAGTACTTTTTG)
  localization of nucleoproteins of influenza virus in the nucleus of the host cell: suppressed
